# Source: patent US10597388B2, “Pyridazinone herbicides” (FMC CORPORATION, priority 2014, dated 2020)
# Experiments:
# Assay in all cases: Test D controlled growth environment herbicide test, pre- and postemergence
# Type in all cases: in vivo
# [1] = system: field poppy (Papaver rhoeas)
# In short: (§1)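 Pre-emergence: seeds sown in silt loam soil were sprayed with compound in a non-phytotoxic solvent mix containing surfactant. Post-emergence: plants at 2 to 18 cm (1- to 4-leaf stage) in peat moss/vermiculite medium got the same formulation. Visual 0–100 rating versus controls after 14 to 21 d.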
# [2] = system: chickweed (common chickweed, Stellaria media)
# In short: as §1
# [3] = system: barley, spring (spring barley, Hordeum vulgare)
# In short: as §1
# [4] = system: ryegrass, Italian (Italian ryegrass, Lolium multiflorum)
# In short: as §1
# [5] = system: bromegrass, downy (downy bromegrass, Bromus tectorum)
# In short: as §1
# [6] = system: wheat, winter (winter wheat, Triticum aestivum)
# In short: as §1
# [7] = system: wheat, spring (spring wheat, Triticum aestivum)
# In short: as §1
# [8] = system: deadnettle (henbit deadnettle, Lamium amplexicaule)
# In short: as §1
# [9] = system: chamomile (scentless chamomile, Matricaria inodora)
# In short: as §1
# [10] = system: lambsquarters (Chenopodium album)
# In short: as §1
# [11] = system: foxtail, green (green foxtail, Setaria viridis)
# In short: as §1
# [12] = system: barley, winter (winter barley, Hordeum vulgare)
# In short: as §1
# [13] = system: blackgrass (Alopecurus myosuroides)
# In short: as §1
# [14] = Postemergence, 31 g ai/ha, scale 0 to 100 (0 no effect, 100 complete control)
# [15] = Postemergence, 125 g ai/ha, visual rating on scale 0 (no effect) to 100 (complete control), 14 to 21 d
# [16] = Postemergence, 250 g ai/ha, scale 0 to 100 (0 no effect, 100 complete control)
# [17] = Preemergence, 125 g ai/ha, scale 0 to 100 (0 no effect, 100 complete control)
# [18] = Preemergence, 250 g ai/ha, scale 0 to 100 (0 no effect, 100 complete control)
# [19] = postemergence, 62 g ai/ha, scale 0 to 100, 0 no effect, 100 complete control
# [20] = Preemergence, 62 g ai/ha, scale 0 to 100 (0 no effect, 100 complete control)
smiles,measurement,setting,value
C#CCOC(=O)Oc1c(C)nn(C)c(=O)c1-c1c(C)sc2ccc(C)cc12 [Compound 87],Field Poppy plant response rating,[1]; [14],70
same,"Plant response rating, Field Poppy",[1]; [15],85
same,"Plant response rating, Field Poppy",[1]; [16],100
same,"Plant response rating (scale of 0 to 100), Field Poppy","[1]; Preemergence, 31 g ai/ha",100
same,"Plant response rating (scale of 0 to 100), Field Poppy","[1]; Preemergence, 62 g ai/ha",100
same,"Plant response rating, Field Poppy",[1]; [17],100
same,"Plant response rating, Field Poppy",[1]; [18],100
same,"Plant response rating, Field Poppy",[1]; [19],85
same,Chickweed plant response rating,[2]; [14],85
same,"Plant response rating, Chickweed",[2]; [15],100
same,"Plant response rating, Chickweed",[2]; [16],100
same,"Plant response rating (scale of 0 to 100), Chickweed","[2]; Preemergence, 31 g ai/ha",100
same,"Plant response rating (scale of 0 to 100), Chickweed","[2]; Preemergence, 62 g ai/ha",100
same,"Plant response rating, Chickweed",[2]; [17],100
same,"Plant response rating, Chickweed",[2]; [18],100
same,"Plant response rating, Chickweed",[2]; [19],90
same,"Barley, Spring plant response rating",[3]; [14],0
same,"Plant response rating, Barley, Spring",[3]; [15],0
same,"Plant response rating, Barley, Spring",[3]; [16],5
same,"Plant response rating (scale of 0 to 100), Barley, Spring","[3]; Preemergence, 31 g ai/ha",0
same,"Plant response rating, Barley, Spring",[3]; [20],0
same,"Plant response rating, Barley, Spring",[3]; [17],0
same,"Plant response rating, Barley, Spring",[3]; [18],5
same,"Plant response rating, Barley, Spring",[3]; [19],0
same,"Ryegrass, Italian plant response rating",[4]; [14],90
same,"Plant response rating, Ryegrass, Italian",[4]; [15],95
same,"Plant response rating, Ryegrass, Italian",[4]; [16],98
same,"Plant response rating (scale of 0 to 100), Ryegrass, Italian","[4]; Preemergence, 31 g ai/ha",90
same,"Plant response rating (scale of 0 to 100), Ryegrass, Italian","[4]; Preemergence, 62 g ai/ha",95
same,"Plant response rating, Ryegrass, Italian",[4]; [17],98
same,"Plant response rating, Ryegrass, Italian",[4]; [18],98
same,"Plant response rating, Ryegrass, Italian",[4]; [19],95
same,"Bromegrass, Downy plant response rating",[5]; [14],45
same,"Plant response rating, Bromegrass, Downy",[5]; [15],65
same,"Plant response rating, Bromegrass, Downy",[5]; [16],65
same,"Plant response rating (scale of 0 to 100), Bromegrass, Downy","[5]; Preemergence, 31 g ai/ha",25
same,"Plant response rating, Bromegrass, Downy",[5]; [20],65
same,"Plant response rating, Bromegrass, Downy",[5]; [17],75
same,"Plant response rating, Bromegrass, Downy",[5]; [18],80
same,"Plant response rating, Bromegrass, Downy",[5]; [19],65
same,"Wheat, Winter plant response rating",[6]; [14],0
same,"Plant response rating, Wheat, Winter",[6]; [15],0
same,"Plant response rating, Wheat, Winter",[6]; [16],5
same,"Plant response rating (scale of 0 to 100), Wheat, Winter","[6]; Preemergence, 31 g ai/ha",0
same,"Plant response rating (scale of 0 to 100), Wheat, Winter","[6]; Preemergence, 62 g ai/ha",0
same,"Plant response rating, Wheat, Winter",[6]; [17],0
same,"Plant response rating, Wheat, Winter",[6]; [18],15
same,"Plant response rating, Wheat, Winter",[6]; [19],0
same,"Wheat, Spring plant response rating",[7]; [14],0
same,"Plant response rating, Wheat, Spring",[7]; [15],5
same,"Plant response rating, Wheat, Spring",[7]; [16],10
same,"Plant response rating (scale of 0 to 100), Wheat, Spring","[7]; Preemergence, 31 g ai/ha",0
same,"Plant response rating (scale of 0 to 100), Wheat, Spring","[7]; Preemergence, 62 g ai/ha",0
same,"Plant response rating, Wheat, Spring",[7]; [17],15
same,"Plant response rating, Wheat, Spring",[7]; [18],20
same,"Plant response rating, Wheat, Spring",[7]; [19],0
same,Deadnettle plant response rating,[8]; [14],10
same,"Plant response rating, Deadnettle",[8]; [15],35
same,"Plant response rating, Deadnettle",[8]; [16],60
same,"Plant response rating (scale of 0 to 100), Deadnettle","[8]; Preemergence, 31 g ai/ha",25
same,"Plant response rating (scale of 0 to 100), Deadnettle","[8]; Preemergence, 62 g ai/ha",35
same,"Plant response rating, Deadnettle",[8]; [17],65
same,"Plant response rating, Deadnettle",[8]; [18],70
same,"Plant response rating, Deadnettle",[8]; [19],15
same,Chamomile plant response rating,[9]; [14],90
same,"Plant response rating, Chamomile",[9]; [15],100
same,"Plant response rating, Chamomile",[9]; [16],100
same,"Plant response rating (scale of 0 to 100), Chamomile","[9]; Preemergence, 31 g ai/ha",95
same,"Plant response rating (scale of 0 to 100), Chamomile","[9]; Preemergence, 62 g ai/ha",95
same,"Plant response rating, Chamomile",[9]; [17],100
same,"Plant response rating, Chamomile",[9]; [18],100
same,"Plant response rating, Chamomile",[9]; [19],100
same,Lambsquarters plant response rating,[10]; [14],95
same,"Plant response rating, Lambsquarters",[10]; [15],100
same,"Plant response rating, Lambsquarters",[10]; [16],100
same,"Plant response rating (scale of 0 to 100), Lambsquarters","[10]; Preemergence, 31 g ai/ha",70
same,"Plant response rating (scale of 0 to 100), Lambsquarters","[10]; Preemergence, 62 g ai/ha",100
same,"Plant response rating, Lambsquarters",[10]; [17],100
same,"Plant response rating, Lambsquarters",[10]; [18],100
same,"Plant response rating, Lambsquarters",[10]; [19],100
same,"Foxtail, Green plant response rating",[11]; [14],70
same,"Plant response rating, Foxtail, Green",[11]; [15],80
same,"Plant response rating, Foxtail, Green",[11]; [16],90
same,"Plant response rating (scale of 0 to 100), Foxtail, Green","[11]; Preemergence, 31 g ai/ha",10
same,"Plant response rating (scale of 0 to 100), Foxtail, Green","[11]; Preemergence, 62 g ai/ha",55
same,"Plant response rating, Foxtail, Green",[11]; [17],95
same,"Plant response rating, Foxtail, Green",[11]; [18],95
same,"Plant response rating, Foxtail, Green",[11]; [19],75
same,"Barley, Winter plant response rating",[12]; [14],0
same,"Plant response rating, Barley, Winter",[12]; [15],5
same,"Plant response rating, Barley, Winter",[12]; [16],5
same,"Plant response rating (scale of 0 to 100), Barley, Winter","[12]; Preemergence, 31 g ai/ha",0
same,"Plant response rating, Barley, Winter",[12]; [20],0
same,"Plant response rating, Barley, Winter",[12]; [17],10
same,"Plant response rating, Barley, Winter",[12]; [18],25
same,"Plant response rating, Barley, Winter",[12]; [19],0
same,Blackgrass plant response rating,[13]; [14],65
same,"Plant response rating, Blackgrass",[13]; [15],85
same,"Plant response rating, Blackgrass",[13]; [16],90
same,"Plant response rating (scale of 0 to 100), Blackgrass","[13]; Preemergence, 31 g ai/ha",70
same,"Plant response rating, Blackgrass",[13]; [20],75
same,"Plant response rating, Blackgrass",[13]; [17],80
same,"Plant response rating, Blackgrass",[13]; [18],80
same,"Plant response rating, Blackgrass",[13]; [19],75
